Assay results published in PubChem BioAssay AID504641 (Sanford-Burnham Center for Chemical Genomics, 2011).
pIC50: −log10 of the molar value. The source made the active and inactive calls.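 How the source made its calls: active means mean IC50 at or below a set limit; inactive means the rest.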

The molecules below were run on 697 B-cell NF-kB luciferase reporter, PMA/ionomycin, 16 h (assay: NF-kB luciferase reporter inhibition in 697 B cells – cell-based, luminescence, set 3, SAR follow-up (AID 504641)).
For `CCOc1ccc(-c2noc(CCC(=O)NC)n2)cc1`, the IC50 was > 80000 nM (inactive).
In the case of `CCOc1ccc(-c2nc(CSCC(=O)NCCc3ccc(Cl)cc3)c(C)o2)cc1`, the IC50 was > 80000 nM (inactive).
`CCOc1ccc(-c2nc(CSCC(=O)N3CCCC3)c(C)o2)cc1` was tested, and the IC50 was > 80000 nM (inactive).
Molecule `CC(C)(C)c1ccc(-c2noc(CCC(=O)NC3CCCCC3)n2)cc1` has a pIC50 of 6.40.
In the case of `CNC(=O)CCc1nc(-c2ccc(OC)cc2)no1`, the IC50 was > 80000 nM (inactive).
`CCOc1ccc(-c2nc(CSCC(=O)NCCc3ccccc3)c(C)o2)cc1` showed a pIC50 of 5.45.
`CC(C)(C)c1ccc(-c2noc(CCC(=O)N3CCCCC3)n2)cc1` was tested, and the IC50 was 30300 nM (inactive).
With `CSc1ccc(-c2nc(CSCC(=O)NC3CC3)c(C)o2)cc1` the pIC50 was 5.87.
Molecule `CCOCCCNC(=O)CSCc1nc(-c2ccc(OCC)cc2)oc1C` has a pIC50 of 4.99.
`COc1ccccc1NC(=O)CCc1nc(-c2ccc(C(C)(C)C)cc2)no1` was tested, and the pIC50 was greater than 6.80.
Molecule `CCCNC(=O)CCc1nc(-c2ccc(C(C)(C)C)cc2)no1` has a pIC50 of 6.72.
Work on `CC(C)(C)c1ccc(-c2noc(CCC(=O)Nc3cccnc3)n2)cc1` yielded a pIC50 of 6.80.
With `CCOc1ccc(-c2nc(CSCC(=O)NC(C)CC)c(C)o2)cc1` (stereo not drawn) the IC50 was 46900 nM (inactive).
With `CC(C)CNC(=O)CCc1nc(-c2ccc(C(C)(C)C)cc2)no1` the pIC50 was 6.62.
For `CCOc1ccc(-c2nc(CSCC(=O)NC3CCCC(C)C3C)c(C)o2)cc1` (stereo not drawn), the IC50 was > 80000 nM (inactive).
Molecule `CCCNC(=O)CSCc1nc(-c2ccc(OCC)cc2)oc1C` has a pIC50 of 5.82.
In the case of `CCOc1ccc(-c2nc(CSCC(=O)NCCC3=CCCCC3)c(C)o2)cc1`, the IC50 was 36500 nM (inactive).
With `CC(C)(C)c1ccc(-c2noc(CCC(=O)NCC3CCCO3)n2)cc1` (stereo not drawn) the pIC50 was 6.23.
`CCOc1ccc(-c2nc(CSCC(=O)NC(C)C)c(C)o2)cc1` gave a pIC50 of 5.91.
`CC(C)(C)c1ccc(-c2noc(CCC(=O)NCc3ccco3)n2)cc1` showed a pIC50 of 6.70.
`CCOc1ccc(-c2nc(CSCC(=O)NCCN3CCCC3)c(C)o2)cc1` showed a pIC50 of 4.92.
`CC(C)(C)c1ccc(-c2noc(CCC(=O)Nc3ccccc3)n2)cc1` was tested, and the pIC50 was greater than 6.80.
For `CCOc1ccc(-c2nc(CSCC(=O)NC3CCCC3)c(C)o2)cc1`, the IC50 was 25700 nM (inactive).
Work on `CCCCNC(=O)CSCc1nc(-c2ccc(OCC)cc2)oc1C` yielded a pIC50 of 5.06.
In the case of `CC(C)NC(=O)CCc1nc(-c2ccc(C(C)(C)C)cc2)no1`, the pIC50 was 6.55.
In the case of `CCOc1ccccc1NC(=O)CCc1nc(-c2ccc(C(C)(C)C)cc2)no1`, the pIC50 was greater than 6.80.
`C=CCNC(=O)CCc1nc(-c2ccc(C(C)(C)C)cc2)no1` showed a pIC50 of 6.72.
With `CNC(=O)CCc1nc(-c2ccc(F)cc2)no1` the IC50 was > 80000 nM (inactive).
`CNC(=O)CCc1nc(-c2ccc(C)cc2)no1` was tested, and the IC50 was > 80000 nM (inactive).
`CCOc1ccc(-c2nc(CSCC(=O)NCc3ccccc3)c(C)o2)cc1` was tested, and the pIC50 was 5.17.
With `CC(C)(C)c1ccc(-c2noc(CCC(=O)N3CCOCC3)n2)cc1` the IC50 was 24300 nM (inactive).
Molecule `CCOc1ccc(-c2nc(CSCC(=O)NCc3cccs3)c(C)o2)cc1` has a pIC50 of 6.19.
Molecule `COc1cccc(NC(=O)CCc2nc(-c3ccc(C(C)(C)C)cc3)no2)c1` has a pIC50 greater than 6.80.
With `CNC(=O)CCc1nc(-c2ccc(Cl)cc2)no1` the IC50 was > 80000 nM (inactive).
Work on `CCOc1ccc(-c2nc(CSCC(=O)NCCc3ccc(C)cc3)c(C)o2)cc1` yielded a pIC50 of 4.74.
Work on `CCOc1ccc(-c2nc(CSCC(=O)NCC3CCCO3)c(C)o2)cc1` (stereo not drawn) yielded a pIC50 of 5.11.
`CCOc1ccc(-c2nc(CSCC(=O)NCc3ccc(C)cc3)c(C)o2)cc1` showed a pIC50 of 5.56.
In the case of `CCOc1ccc(-c2nc(CSCC(=O)N3CCC(C)CC3)c(C)o2)cc1`, the IC50 was 70400 nM (inactive).
For `CC(C)(C)c1ccc(-c2noc(CCC(=O)Nc3cccc([N+](=O)[O-])c3)n2)cc1`, the pIC50 was greater than 6.80.
In the case of `CCCNC(=O)CSCc1nc(-c2ccc(SC)cc2)oc1C`, the IC50 was > 80000 nM (inactive).
With `CCOc1ccc(-c2nc(CSCC(=O)NCc3cccnc3)c(C)o2)cc1` the pIC50 was 5.62.
With `CCOc1ccc(-c2nc(CSCC(=O)NCCOC)c(C)o2)cc1` the pIC50 was 6.51.
For `CC(C)(C)c1ccc(-c2noc(CCC(=O)NC3CCCC3)n2)cc1`, the pIC50 was 6.44.
